The source of these data is ChEMBL document CHEMBL1201862, “PubChem BioAssay data set” (2004).

One experiment concerns HCT-15. Nature of the experiment: NCI-60 cell line screen, 48 h.
In a further experiment the test system is SNB-75. The experiment in a line: NCI-60 cell line screen, 48 h.

Structures are written as SMILES.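 Where inhibition never reached the appropriate level, the endpoint shown equals the highest concentration tested. Otherwise, values were interpolated linearly from a five-concentration, 48-hour dose response in 96-well plates. GI50: concentration for 50% inhibition of growth.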 Active and inactive are the calls of the source. Cut-off read from the data, not from the text of the source: active = GI50 up to about 1.1 µM and inactive = higher. Where only a bound is given, the exact number is not on record here.

In the case of `O=C1NP23(OCCO2)Oc2ccccc2C3(C(F)(F)F)O1` (configuration not stated), the GI50 with HCT-15 was 72.3 µM; with SNB-75, > 100 µM (inactive).
